Laboratory results from ChEMBL document CHEMBL6074657, “Discovery and Synthesis of Heterobifunctional Degraders of Rearranged during Transfection (RET) Kinase” (J Med Chem, 2024).

Assays:
[1] = in vitro; conditions: human, liver microsomes
[2] = in vitro; conditions: rat, liver microsomes
[3] = in vitro; conditions: mouse, liver microsomes
[4] = in vitro; conditions: mouse, liver microsomes; remark: listed apart in the source
[5] = in vitro; conditions: human, liver microsomes; remark: listed apart in the source
[6] = Intrinsic clearance in mouse; format: ADME, organism-based; conditions: in vivo
[7] = Cmax in athymic nude mouse at 75 mg/kg, sc measured after 24 hrs by LC/MS analysis; format: ADME, organism-based; conditions: in vivo
[8] = Cmax in athymic nude mouse at 8 mg/kg, sc measured after 24 hrs by LC/MS analysis; format: ADME, organism-based; conditions: in vivo
[9] = Cmax in athymic nude mouse at 25 mg/kg, sc measured after 24 hrs by LC/MS analysis; format: ADME, organism-based; conditions: in vivo
[10] = Bioavailability in mouse at 50 mg/kg, sc; format: ADME, organism-based; conditions: in vivo
[11] = Tmax in athymic nude mouse at 8 to 75 mg/kg, sc by LC/MS analysis; format: ADME, organism-based; conditions: in vivo, dose 8-75 mg/kg
[12] = Metabolic stability in rat liver microsomes assessed as half-life; format: ADME, Microsome

SMILES	remaining at 10 min [1]	remaining at 10 min [2]	remaining at 10 min [3]	half-life [4]	half-life [5]	CLint scaled [6]	Cmax [7]	Cmax [8]	Cmax [9]	bioavailability [10]	Tmax [11]	half-life [12]
COc1ccc(CN2[C@@H]3C[C@H]2CN(c2ccc(-c4cc(OCC(C)(C)O)cn5ncc(C#N)c45)cn2)C3)cn1	58%	89%	63%	–	–	–	–	–	–	–	–	–
CCOc1cc(-c2ccc(N3CCC(CN4CCC(C(=O)N5CC(N6CCC(c7ccc8c(c7)C(=O)N(C7CCC(=O)NC7=O)C8)CC6)C5)CC4)(NC(=O)c4cc(F)ccc4F)CC3)nc2)c2c(C#N)cnn2c1 (stereo not given)	–	–	–	1.57 h	> 2 h	–	–	–	–	–	–	–
CCOc1cc(-c2ccc(N3CCC(CN4CCN(C(=O)CCN5CCC(c6ccc7c(N8CCC(=O)NC8=O)nn(C)c7c6)CC5)CC4)(NC(=O)c4cc(F)ccc4F)CC3)nc2)c2c(C#N)cnn2c1	81%	75%	88%	1.73 h	0.7 h	–	–	–	–	–	–	–
CCOc1cc(-c2ccc(N3CCC(CN4CCN(C(=O)CCN5CCC(c6ccc7c(c6)C(=O)N([C@@H]6CCC(=O)NC6=O)C7)CC5)CC4)(NC(=O)c4cc(F)ccc4F)CC3)nc2)c2c(C#N)cnn2c1	98%	100%	100%	> 2 h	1.28 h	–	–	–	–	–	–	–
CCOc1cc(-c2ccc(N3CCC(CN4CCN(C(=O)CCN5CCC(c6ccc7c(c6)C(=O)N([C@H]6CCC(=O)NC6=O)C7)CC5)CC4)(NC(=O)c4cc(F)ccc4F)CC3)nc2)c2c(C#N)cnn2c1	100%	100%	80%	> 2 h	> 2 h	–	–	–	–	–	–	–
CCOc1cc(-c2ccc(N3CCC(CN4CCN(C(=O)CCN5CCC(c6ccc7c(c6)CN(C6CCC(=O)NC6=O)C7=O)CC5)CC4)(NC(=O)c4cc(F)ccc4F)CC3)nc2)c2c(C#N)cnn2c1 (stereo not given)	85%	94%	82%	0.95 h	1.02 h	–	–	–	–	–	–	–
CCOc1cc(-c2ccc(N3CCC(CN4CCN(C(=O)CCCCCCN5CCC(c6ccc7c(c6)CN(C6CCC(=O)NC6=O)C7=O)CC5)CC4)(NC(=O)c4cc(F)ccc4F)CC3)nc2)c2c(C#N)cnn2c1 (stereo not given)	78%	88%	80%	1.55 h	0.583 h	–	–	–	–	–	–	–
CCOc1cc(-c2ccc(N3CCC(CN4CCN(C(=O)CCCCN5CCC(c6ccc7c(c6)CN(C6CCC(=O)NC6=O)C7=O)CC5)CC4)(NC(=O)c4cc(F)ccc4F)CC3)nc2)c2c(C#N)cnn2c1 (stereo not given)	88%	100%	85%	1.42 h	1.4 h	–	–	–	–	–	–	–
CCOc1cc(-c2ccc(N3CCC(COCC(=O)N4CCC(CN5CCN(c6ccc7c(c6)CN(C6CCC(=O)NC6=O)C7=O)CC5)CC4)(NC(=O)c4cc(F)ccc4F)CC3)nc2)c2c(C#N)cnn2c1 (stereo not given)	10%	81%	68%	–	–	–	–	–	–	–	–	–
CCOc1cc(-c2ccc(N3CCC(CN4CCN(C(=O)CCCCCCN5CCN(c6ccc7c(c6)CN(C6CCC(=O)NC6=O)C7=O)CC5)CC4)(NC(=O)c4cc(F)ccc4F)CC3)nc2)c2c(C#N)cnn2c1 (stereo not given)	40%	84%	70%	0.467 h	0.133 h	32 mL/min/kg	–	–	–	–	–	–
CCOc1cc(-c2ccc(N3CCC(CN4CCN(C(=O)CCN5CCC(c6ccc7c(c6)C(=O)N(C6CCC(=O)NC6=O)C7)CC5)CC4)(NC(=O)c4cc(F)ccc4F)CC3)nc2)c2c(C#N)cnn2c1 (stereo not given)	82%	89%	85%	0.933 h	0.867 h	–	–	–	–	–	–	–
CCOc1cc(-c2ccc(N3CCC(CN4CCN(C(=O)C5CC6(C5)CC(N5CCN(c7ccc8c(c7)CN(C7CCC(=O)NC7=O)C8=O)CC5)C6)CC4)(NC(=O)c4cc(F)ccc4F)CC3)nc2)c2c(C#N)cnn2c1 (stereo not given)	84%	100%	81%	1.53 h	> 2 h	–	–	–	–	–	–	–
CCOc1cc(-c2ccc(N3CCC(CN4CCN(C(=O)C5CC(N6CCC(c7ccc8c(c7)C(=O)N(C7CCC(=O)NC7=O)C8)CC6)C5)CC4)(NC(=O)c4cc(F)ccc4F)CC3)nc2)c2c(C#N)cnn2c1 (stereo not given)	–	–	–	> 2 h	1.48 h	–	8.09 µM	0.708 µM	4.3 µM	30%	1 h	> 2 h
CCOc1cc(-c2ccc(N3CCC(CN4CCN(C(=O)CCN5CCC(c6ccc7c(c6)C(=O)N(C6CCC(=O)NC6=O)C7)CC5)CC4)(NC(=O)c4ncccc4F)CC3)nc2)c2c(C#N)cnn2c1 (stereo not given)	79%	97%	100%	–	–	–	–	–	–	–	–	–
